Target: Nicotine oxidoreductase (NicA2) (Pseudomonas putida, UniProt F8G0P2)
Test: X-ray crystal structure at […] Å
Format: binding

Sequence of Nicotine oxidoreductase (NicA2) (F8G0P2 whole entry): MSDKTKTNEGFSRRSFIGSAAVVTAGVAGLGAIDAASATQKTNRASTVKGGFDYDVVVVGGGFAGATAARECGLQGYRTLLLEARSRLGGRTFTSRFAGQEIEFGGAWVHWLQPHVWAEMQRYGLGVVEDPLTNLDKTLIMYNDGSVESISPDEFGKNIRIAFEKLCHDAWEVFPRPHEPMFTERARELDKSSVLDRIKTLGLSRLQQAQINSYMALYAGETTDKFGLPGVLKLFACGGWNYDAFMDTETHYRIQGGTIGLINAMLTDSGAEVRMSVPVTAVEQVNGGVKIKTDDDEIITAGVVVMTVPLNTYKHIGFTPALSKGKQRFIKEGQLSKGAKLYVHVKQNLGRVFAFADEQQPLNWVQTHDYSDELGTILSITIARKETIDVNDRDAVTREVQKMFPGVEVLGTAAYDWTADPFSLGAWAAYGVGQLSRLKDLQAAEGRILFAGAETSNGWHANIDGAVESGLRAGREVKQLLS

Cc1cc2nc3c(=O)[nH]c(=O)nc-3n(C[C@H](O)[C@H](O)[C@H](O)COP(=O)(O)OP(=O)(O)OC[C@H]3O[C@@H](n4cnc5c(N)ncnc54)[C@H](O)[C@@H]3O)c2cc1C [FAD]
X-ray crystal structure at 2.65 Å: The general positioning of FAD is clearly defined in the electron density maps

— publication PMC6295333 (Biochemistry, 2018)
